The text below walks through data of US20180258180A1, “COMBINATION THERAPY INVOLVING ANTIBODIES AGAINST CLAUDIN 18.2 FOR TREATMENT OF CANCER” (Ganymed Pharmaceuticals AG, priority 2012, published 2018).

For data set [1], the system named is CLDN18.2-positive (NUGC-4, KATO III) human target cell lines. The experiment in a line: IMAB362 ADCC with ZA/IL-2 expanded effector cells on CLDN18.2-positive target cell lines. In kind it is cell-based. As to the method: These effector cell cultures were used in ADCC assays with CLDN18.2-positive (NUGC-4, KATO III) and negative (SK-BR-3) human target cell lines (E:T ratio 40:1). […] ADCC was measured in luciferase assays; cf. FIG. 15a. […] FIG. 15b. Same experiment as described in (a) was performed using NUGC-4 as target cells; cf. FIG. 15c. […] A purity of more than 97.0% Vγ9Vδ2 T cells in lymphocytes was obtained.

For data set [2], the system named is NUGC-4 gastric cancer cells. Description: IMAB362-mediated ADCC on chemotherapy pretreated NUGC-4 cells. It is filed as cell-based, human. To be noted: NUGC-4 pretreated with 5-FU+OX, EOF or FLO for 96 hours. As to the method: IMAB362-mediated ADCC was investigated using NUGC-4 gastric cancer cells as target, which were either pretreated with 10 ng/ml 5-FU and 500 ng/ml oxaliplatin (5-FU+OX), 10 ng/ml epirubicin, 500 ng/ml oxaliplatin and 10 ng/ml 5-FU (EOF) or 10 ng/ml 5-FU, 50 ng/ml folinic acid and 500 ng/ml oxaliplatin (FLO) for 96 hours (effector:target ratio 40:1) or untreated. EC50 values were obtained from 7 healthy donors for untreated and EOF, FLO or 5-FU+OX pretreated NUGC-4 cells.

Data set [3] deals with CLS-103~cldn18.2 allograft tumors. Description: Combination of IMAB362 and EOF on CLS-103~cldn18.2 allograft tumors. The conditions noted are these: mouse, in vivo. The arrangement: species or system NMRI mice. An excerpt: Tumor size and animal health were monitored semi-weekly. Mice were sacrificed, when tumor reached a volume of 1400 mm^3 or tumors became ulcerous.
Data set [4] can be described thus: Repeated dose toxicity study in mice. In kind it is in vivo. To be noted: weekly administration for 3 months, highest dose levels 400 mg/kg. An excerpt:
This compartimentalization is lost upon malignant transformation rendering the epitope drugable by IMAB362.

In data set [5] the test system is NUGC-4~CLDN18.2 xenograft tumors. Description: Combination of IMAB362 and EOF regimen on NUGC-4~CLDN18.2 xenografts. To be noted: mouse, in vivo. Further details: species or system nude mice. The method, then: Xenograft tumors were inoculated by injection of 1×10^7 NUGC-4˜CLDN18.2 cells subcutaneous into the flank of 10 nude mice (female, six weeks old) per treatment group. Mice were treated on day 3, 10, 17 and 24 with chemotherapeutic agents. IMAB362 treatment was continued weekly.

For the substance “IMAB362: chimeric IgG1 antibody directed against CLDN18.2, developed by Ganymed Pharmaceuticals AG”, in data set [1] (NUGC-4 targets, day 14), the “ADCC activity with Vγ9Vδ2 T cells isolated with >97% purity” value was “retained and partly improved”. Further, the “ADCC activity against CLDN18.2-positive human tumor cell lines” value in data set [1] (ZA/IL-2 cultured effector cells, E:T 40:1) is recorded as “Strong ADCC activity”. The “maximal lysis in IMAB362-mediated ADCC, pretreated versus untreated target cells” value in data set [2] is recorded as “higher maximal lysis”. Moreover, in data set [2] (E:T 40:1, 7 donors), the “EC50 of IMAB362-mediated ADCC on pretreated cells relative to untreated cells” value was “one third”. Moreover, in data set [3], the “tumor growth inhibition compared to saline control group” value was “no significant tumor growth inhibition”. The “tolerability of repeated doses i.v.” value in data set [4] was “well tolerated”. In addition, the “tumor growth compared to saline treated control group” value in data set [5] is reported as “inhibited significantly the tumor growth”.
